Counter-ions that a name gives are not always drawn. Like-named read-outs stand apart in the source and are kept apart here.
Key:
[1] = target: T1, TBK1 (Homo sapiens, UniProt Q9UHD2); assay: TBK Biochemical Assay
T1 sequence (Q9UHD2 1-729): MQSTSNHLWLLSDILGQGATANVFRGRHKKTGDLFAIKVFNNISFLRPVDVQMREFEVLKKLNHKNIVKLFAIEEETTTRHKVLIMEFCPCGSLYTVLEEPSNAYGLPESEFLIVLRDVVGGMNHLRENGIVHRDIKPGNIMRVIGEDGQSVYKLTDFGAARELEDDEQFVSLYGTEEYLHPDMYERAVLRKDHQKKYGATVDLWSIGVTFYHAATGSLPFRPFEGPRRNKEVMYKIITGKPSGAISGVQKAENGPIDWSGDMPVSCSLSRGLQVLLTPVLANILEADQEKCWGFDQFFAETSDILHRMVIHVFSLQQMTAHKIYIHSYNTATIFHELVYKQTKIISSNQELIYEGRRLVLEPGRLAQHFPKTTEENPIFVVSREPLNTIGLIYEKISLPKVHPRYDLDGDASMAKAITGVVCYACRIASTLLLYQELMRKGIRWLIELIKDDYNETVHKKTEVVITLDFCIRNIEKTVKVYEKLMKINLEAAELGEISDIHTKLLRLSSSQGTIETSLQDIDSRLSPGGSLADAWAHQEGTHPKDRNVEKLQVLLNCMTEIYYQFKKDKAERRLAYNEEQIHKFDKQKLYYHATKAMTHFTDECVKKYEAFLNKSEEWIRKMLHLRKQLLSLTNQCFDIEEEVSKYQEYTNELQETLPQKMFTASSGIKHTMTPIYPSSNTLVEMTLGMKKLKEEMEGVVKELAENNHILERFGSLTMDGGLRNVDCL
In short: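 TBK1 enzyme and substrate incubated with compounds (10-point 1:4 dilution, top 30 uM final, 1% DMSO) for 90 min at 25° C, then stopped. Substrate/product peaks read by microfluidic mobility-shift (Caliper LabChip); 10 uM staurosporine as full-inhibition control.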

[2] = system: phosphorylation of the IRF-3 protein in MDA-MB-468 cells; assay: pIRF3 immunocytochemistry cell based assay; conditions: Homo sapiens
In short: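 MDA-MB-468 cells got compounds (10-point, 3-fold from 10 uM) for 1 h at 37 °C, then 10 ug/ml Poly(I:C) for 2 h. Fixed, permeabilized cells were immunostained for pIRF3 with AlexaFluor488 and counterstained with PI. % phosphorylation was read by laser scanning cytometry, and IC50 curves were fitted.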

[3] = target: T2, IKKε (Homo sapiens, UniProt Q14164); assay: IKKe Biochemical Assay
T2 sequence (Q14164 1-716): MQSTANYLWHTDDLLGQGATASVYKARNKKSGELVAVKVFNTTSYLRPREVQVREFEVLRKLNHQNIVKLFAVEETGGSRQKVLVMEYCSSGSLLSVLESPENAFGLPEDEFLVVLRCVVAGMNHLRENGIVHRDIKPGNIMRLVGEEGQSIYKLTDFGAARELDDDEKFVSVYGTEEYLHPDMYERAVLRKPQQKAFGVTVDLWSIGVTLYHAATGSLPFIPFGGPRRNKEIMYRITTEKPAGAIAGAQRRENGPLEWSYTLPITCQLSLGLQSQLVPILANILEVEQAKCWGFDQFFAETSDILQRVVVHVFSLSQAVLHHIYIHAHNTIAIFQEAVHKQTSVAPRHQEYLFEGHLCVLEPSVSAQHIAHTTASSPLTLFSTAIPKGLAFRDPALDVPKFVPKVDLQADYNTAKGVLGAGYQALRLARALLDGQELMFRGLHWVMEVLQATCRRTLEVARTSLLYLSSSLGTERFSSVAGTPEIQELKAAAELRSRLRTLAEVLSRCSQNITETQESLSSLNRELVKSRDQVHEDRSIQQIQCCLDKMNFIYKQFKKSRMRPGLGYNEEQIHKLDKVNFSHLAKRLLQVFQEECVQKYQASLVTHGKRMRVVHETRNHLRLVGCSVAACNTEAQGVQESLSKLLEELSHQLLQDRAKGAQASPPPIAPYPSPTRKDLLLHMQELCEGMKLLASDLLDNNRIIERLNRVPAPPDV
In short: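 Recombinant IKKε and substrate were incubated with compound (10-point 1:4 series, top 30 uM final, 1% DMSO) for 90 min at 25° C, then stopped. Substrate-to-product conversion was read by LabChip microfluidic mobility shift; 10 uM staurosporine served as full-inhibition wells.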

[4] = MDA-MB-468 cells, Poly(I:C) stimulation, read-out: pIRF3 IC50

| Compound | IC50 ([1]; read-out: TBK1 IC50) [nM] | IC50 [2, 4] [nM] | IC50 ([3]; read-out: IKKε IC50) [nM] | IC50 ([1]; TBK1 IC50) [nM] | IC50 ([2]; MDA-MB-468, read-out: pIRF3 IC50) [nM] | IC50 [3] [nM] |
| --- | --- | --- | --- | --- | --- | --- |
| CN(C)C(=O)c1ccc(-c2cc3nccc(-c4ccc(OC5(C)CCOCC5)c(C#N)c4)c3o2)cc1 [Compound 159, 4-{7-[3-Cyano-4-(4-methyl-tetrahydro-pyran-4-yloxy)-phenyl]-furo[3,2-b]pyridin-2-yl}-N,N-dimethyl-benzamide] | 100 to 1000 | > 5000 | 100 to 1000 |  |  |  |
| COc1cc(C(=O)NC2CN3CCC2CC3)ccc1-c1cc2nccc(-c3ccc(NC4C5COCC54)c(C#N)c3)c2o1 (stereo not drawn) [Compound 119, N-(1-Aza-bicyclo[2.2.2]oct-3-yl)-4-{7-[3-cyano-4-(3-oxa-bicyclo[3.1.0]hex-6-ylamino)-phenyl]-furo[3,2-b]pyridin-2-yl}-3-methoxy-benzamide] |  |  |  | < 100 | < 100 | < 100 |
| COc1cc(C(=O)N2CC(CO)C2)ccc1-c1cc2nccc(-c3ccc(OC4CCOCC4)c(C#N)c3)c2o1 [Compound 38, 5-{2-[4-(3-Hydroxymethyl-azetidine-1-carbonyl)-2-methoxy-phenyl]-furo[3,2-b]pyridin-7-yl}-2-(tetrahydro-pyran-4-yloxy)-benzonitrile] | < 100 | 100 to 1000 | < 100 |  |  |  |
| COc1cc(C(=O)N(C)C)ccc1-c1cc2nccc(-c3ccc(OC4CCOCC4)c(C#N)n3)c2o1 [Compound 31, 4-{7-[6-Cyano-5-(tetrahydro-pyran-4-yloxy)-pyridin-2-yl]-furo[3,2-b]pyridin-2-yl}-3-methoxy-N,N-dimethyl-benzamide] | < 100 | < 100 | < 100 |  |  |  |
| COc1cc(C(=O)N2CC3CCC(C2)O3)ccc1-c1cc2nccc(-c3ccc(NC4CCOCC4)c(C#N)c3)c2o1 [Compound 46, 5-{2-[2-Methoxy-4-(8-oxa-3-aza-bicyclo[3.2.1]octane-3-carbonyl)-phenyl]-furo[3,2-b]pyridin-7-yl}-2-(tetrahydro-pyran-4-ylamino)-benzonitrile] | < 100 | 100 to 1000 | < 100 |  |  |  |
| COc1cc(C(=O)NC2CCNC2)ccc1-c1cc2nccc(-c3ccc(NC4CCOCC4)c(C#N)c3)c2o1 (stereo not drawn) [Compound 130, 4-{7-[3-Cyano-4-(tetrahydro-pyran-4-ylamino)-phenyl]-furo[3,2-b]pyridin-2-yl}-3-methoxy-N-pyrrolidin-3-yl-benzamide] | < 100 | 100 to 1000 | < 100 |  |  |  |
| N#Cc1cc(-c2ccnc3cc(-c4ccc(C(=O)NC5CNCCC5F)cc4)oc23)ccc1OC1CCOCC1 (racemic) [Compound 131, 4-{7-[3-Cyano-4-(tetrahydro-pyran-4-yloxy)-phenyl]-furo[3,2-b]pyridin-2-yl}-N-(4-fluoro-piperidin-3-yl)-benzamide] | < 100 | 100 to 1000 | < 100 |  |  |  |
| COc1cc(C(=O)N(C)C)ccc1-c1cc2nccc(-c3ccc(OC4CCN(C(C)=O)CC4)c(C#N)c3)c2o1 [Compound 112, 4-{7-[4-(1-Acetyl-piperidin-4-yloxy)-3-cyano-phenyl]-furo[3,2-b]pyridin-2-yl}-3-methoxy-N,N-dimethyl-benzamide] | < 100 | 100 to 1000 | < 100 |  |  |  |

Further lines, with some results ahead:

| IC50 ([1]; read-out: TBK1 IC50) [nM] | IC50 [2, 4] [nM] | IC50 ([3]; read-out: IKKε IC50) [nM] | Compound | IC50 ([1]; TBK1 IC50) [nM] | IC50 ([2]; MDA-MB-468, read-out: pIRF3 IC50) [nM] | IC50 [3] [nM] |
| --- | --- | --- | --- | --- | --- | --- |
| 100 to 1000 | 1000 to 5000 | 100 to 1000 | COc1cc(C(=O)N(C)C)cnc1-c1cc2ncc(OC)c(-c3ccc(OC4CCOCC4)c(C#N)n3)c2o1 [Compound 338, 6-[7-[6-cyano-5-(oxan-4-yloxy)pyridin-2-yl]-6-methoxyfuro[3,2-b]pyridin-2-yl]-5-methoxy-N,N-dimethylpyridine-3-carboxamide hydrochloride] |  |  |  |
| < 100 | 100 to 1000 | < 100 | COc1cc(C(=O)N2CCCCN2C)ccc1-c1cc2nccc(-c3ccc(OC4CCOCC4)c(C#N)c3)c2o1 [Compound 478, 5-{2-[2-Methoxy-4-(2-methyl-tetrahydro-pyridazine-1-carbonyl)-phenyl]-furo[3,2-b]pyridin-7-yl}-2-(tetrahydro-pyran-4-yloxy)-benzonitrile] |  |  |  |
| < 100 | 100 to 1000 | < 100 | COc1cc(C(=O)NC2CN(C)CCC2O)ccc1-c1cc2nccc(-c3ccc(OC4CCOCC4)c(C#N)c3)c2o1 (stereo not drawn) [Compound 348, 4-[7-[3-cyano-4-(oxan-4-yloxy)phenyl]furo[3,2-b]pyridin-2-yl]-N-(4-hydroxy-1-methylpiperidin-3-yl)-3-methoxybenzamide] |  |  |  |
| 100 to 1000 | 100 to 1000 | 100 to 1000 | COc1cc(C(=O)N(C)C)cnc1-c1cc2nccc(-c3ccc(OC4CCN(C)C4)c(C#N)c3)c2o1 (stereo not drawn) [Compound 426, 6-(7-[3-cyano-4-[(1-methylpyrrolidin-3-yl)oxy]phenyl]furo[3,2-b]pyridin-2-yl)-5-methoxy-N,N-dimethylpyridine-3-carboxamide] |  |  |  |
| < 100 | 100 to 1000 | < 100 | COc1cc(C(=O)N2CC3COCC3C2)cnc1-c1cc2nccc(-c3ccc(NC4CCOCC4)c(C#N)c3)c2o1 (stereo not drawn) [Compound 420, 5-[2-[5-([hexahydro-1H-furo[3,4-c]pyrrol-5-yl]carbonyl)-3-methoxypyridin-2-yl]furo[3,2-b]pyridin-7-yl]-2-[(oxan-4-yl)amino]benzonitrile] |  |  |  |
| < 100 | 100 to 1000 | 100 to 1000 | COc1cc(C(=O)N(C)C)cnc1-c1cc2ncc(F)c(-c3ccc(NC4CCOCC4)c(C#N)c3)c2o1 [Compound 329, 6-(7-[3-cyano-4-[(oxan-4-yl)amino]phenyl]-6-fluorofuro[3,2-b]pyridin-2-yl)-5-methoxy-N,N-dimethylpyridine-3-carboxamide] |  |  |  |
| < 100 | 100 to 1000 | < 100 | COc1cc(C(=O)N2CC3CCC(C2)O3)cnc1-c1cc2nccc(-c3ccc(OC4CCOCC4)c(C#N)c3)c2o1 [Compound 411, 5-[2-[3-methoxy-5-([8-oxa-3-azabicyclo[3.2.1]octan-3-yl]carbonyl)pyridin-2-yl]furo[3,2-b]pyridin-7-yl]-2-(oxan-4-yloxy)benzonitrile hydrochloride] |  |  |  |
| < 100 | 100 to 1000 | < 100 | COc1cc(C(=O)N(C)C(C)(C)CO)ccc1-c1cc2nccc(-c3ccc(OC4CCOCC4)c(C#N)c3)c2o1 [Compound 480, 4-{7-[3-Cyano-4-(tetrahydro-pyran-4-yloxy)-phenyl]-furo[3,2-b]pyridin-2-yl}-N-(2-hydroxy-1,1-dimethyl-ethyl)-3-methoxy-N-methyl-benzamide] |  |  |  |
| < 100 | < 100 | < 100 | COc1cc(C(=O)N2CC3CCC2CO3)cnc1-c1cc2nccc(-c3ccc(OC4CCOCC4)c(C#N)c3)c2o1 (stereo not drawn) [Compound 414, hydrochloride] |  |  |  |
| < 100 | 100 to 1000 | < 100 | COc1cc(C(=O)NC2(C)CCN(C)CC2)ccc1-c1cc2nccc(-c3ccc(OC4CCOCC4)c(C#N)c3)c2o1 [Compound 370, 4-[7-[3-cyano-4-(oxan-4-yloxy)phenyl]furo[3,2-b]pyridin-2-yl]-N-(1,4-dimethylpiperidin-4-yl)-3-methoxybenzamide hydrochloride] |  |  |  |
